Source: patent publication US9593363B2, “Methods and models for assessing anti-aging benefits of agents” (The Procter & Gamble Company, priority 2012, dated 2017)

Legend:
Assay type in all cases: cell-based
epidermal gene panel = test: ex vivo human skin tissue culture, PCR fold change of epidermal gene panel vs untreated control; conditions: 5 day time course, 33° C.; for relative fold change of epidermal gene panel (rank order): 70% relative humidity (FIG. 5A); for regulation of AQP3 / regulation of KRT10 and FLG: 70% relative humidity, tRA media applied, retinol and retinol propionate topically applied, N=6 (FIG. 5A)
Experimental: Referring to FIG. 5A, a bar graph illustrates the fold change (compared to an untreated control) for the epidermal gene panel of FIG. 3 following media dosing with trans-retinoic acid (tRA), retinol, or retinol propionate (RP) over a 5 day time course. […] The doses were applied over a 5 day time course during which tRA was media applied while retinol and retinol propionate were topically applied to the ex-vivo tissue samples (N=6 per material) incubated at 33° C. and 70% relative humidity. At the end of 5 days, two 4 mm punch biopsies were removed from each of the tissue samples for RNA isolation followed by PCR analysis.
The fold-increase/decrease in expression, versus an untreated control, was determined for the epidermal gene panel set forth in FIG. 3 for ex vivo tissue from a single donor over a 7 day time course incubated at 37° C. at a relative humidity of 55%. The test agents were applied topically.

[1] = system: retinoid metabolism gene panel; test: ex vivo human skin tissue culture, PCR fold change of retinoid gene panel; conditions: for regulation of CYP26A1, ALDH1A2, RDH10, RARRES1 and LRAT: by Day 7 compared to Day 5, single donor, tRA media, retinol propionate topical (FIG. 6C); for regulation of CRABP2, RARG and CEBPA / regulation of Cyp26B1: day 7, 37° C., tRA media applied, retinol propionate topically applied (FIG. 6C)
Experimental: FIGS. 6A, 6B, and 6C provide heat maps illustrating the fold change for the gene panel of FIG. 3 over a 7 day time course following media dosing with the tRA and retinol propionate. The cells in FIGS. 6A, 6B, and 6C are cross-hatched in the same way as the cells in FIG. 4 (i.e., see the legend provided in FIG. 4). The tRA was media applied and the retinol propionate was topically applied to the ex-vivo tissue samples (N=6 per material), which were incubated at 37° C. and 50% relative humidity. At the end of 48 hours, 5 days and 7 days, two 4 mm punch biopsies were removed from each of the tissue samples for RNA isolation followed by PCR analysis. […] These genes are all important in retinoic acid-mediated regulation of human skin growth and differentiation.
Referring again to FIGS. 6A, 6B, and 6C, the fold change data from a single donor over a 7 day time course is shown for media application of tRA and topical application of retinol propionate.
(§1) Skin preparation involved preparation of media in advance of the arrival of skin (3× media including 500 ml DMEM plus 15 ml of antibiotic and antimycotics; the 3× referred to 3-fold levels of antibiotics/antimycotics used for the initial hour of incubation; 1× Media: 500 ml DMEM plus 5 ml of antibiotic and antimycotics). The skin arrived with the dermis (fat) side down on sterile DMEM soaked gauze in a sterile culture dish. The culture dish was taped shut and in a biohazard zip-lock baggie on an ice pack in a secondary container.
(§2) On arrival, the skin was removed from the bag and soaked in 3×DMEM media and stored at 4° C. for 1 hour. After 1 hour, the skin was removed from the 3×DMEM and rinsed with sterile 1×PBS. The skin was placed in a clean culture dish containing gauze soaked with 1×DMEM. The sample was put in culture the same day as arrival; though the sample may be stored overnight at 4° C. if desired.
(§3) In preparation for culture, the following were performed on the skin tissue. On a cutting mat, the skin tissue was positioned such that the epidermis was down and the fat was exposed. The fat was removed with a disposable scalpel by carefully grasping one corner of the skin with sterile serrated forceps and scraping the fat away with the blade held at a 45 degree angle to the skin. After the fat was removed, the surgical edges were cut off with a scalpel using a scraper as a straight edge guide and to hold the skin in place. Using the scraper as a guide, the skin was cut into 1.25 cm wide strips using a ruler (such as the one on optionally provided on the cutting mat) to measure the width. The strip was rinsed in a 100 mm culture dish containing 1×PBS. The strips were cut into 1.25 cm squares and placed in a 100 mm culture dish onto 1×DMEM soaked gauze until they were put into culture 30 minutes later (with time points of 15 minutes, 30 minutes, 45 minutes, or an hour being used in various non-limiting examples).
(§4) Culturing involved putting 2.5 ml of media or treatment into each well of a 6-well tissue plate, adding one Millicell® brand culture insert to each well, and putting 100 μl of 1×DMEM on the center of each insert membrane. The skin sample squares were selected randomly and placed into each of the inserts (one skin sample per insert), on top of the media on the membrane. The plates were stored at 33° C. (though an additional non-limiting example would be 37° C. depending on the experiment endpoint). As a control, baseline tissue measurements were collected from excess waste (cryogenics were used for snap freezing). Baseline biopsy collection involved from each tissue piece; one 4 mm punch for MTT; one 4 mm punch (snap frozen in OCT) for fresh histology; One 4 mm punch was fixed in 10% formalin for paraffin embedding and two 4 mm punches (snap frozen in liquid nitrogen) for PCR.
Culture and treatment of the model comprised replicates of n=6 (though replicates of additional quantities may be used such as n=5).

dermal gene panel = test: ex vivo human skin tissue culture, PCR fold change of dermal gene panel vs untreated control
Experimental: The culturing temperature can also affect the pattern and magnitude of the gene regulation in ex vivo tissue samples. Referring to FIGS. 9A and 9B, heat maps illustrate the fold changes for nine dermal genes for five different donor tissue samples incubated at 33° C. for 7 days and 50% relative humidity and five different donor tissue samples incubated at 37° C. for 7 days at 50% relative humidity. The tissue samples were treated with a media supplied dose of 20 ng/ml of TGFβ-1. […]
Referring to FIG. 18, an olive oil extract, an artichoke leaf extract, and a blend of these extracts were evaluated according to methods described herein. The cells in the table of FIG. 18 are cross-hatched in the same way as the cells in the table of FIG. 4 (i.e., see the legend provided in FIG. 4). The fold-increase/decrease in expression, versus an untreated control, was determined for the dermal gene panel set forth in FIG. 3 for ex vivo tissue from a single donor over a 7 day time course. The skin samples were incubated at a temperature of 37° C. and a relative humidity of 55%. The test agents were applied topically to the skin samples. […] This is another example of identifying actives that may synergistically provide anti-aging benefit.
as §1, §2, §3
as §4, with “Baseline biopsy collection involved from each tissue piece; one 4 mm punch for MTT; one 4 mm punch (snap frozen in OCT) for fresh histology; One 4 mm punch was fixed in 10% formalin for paraffin embedding and two 4 mm punches (snap frozen in liquid nitrogen) for PCR.” left out

TGFβ-2 and TGFβ-3 = test: ex vivo human skin tissue culture, PCR fold change of TGFβ-2 and TGFβ-3; conditions: media dosing, 33° C., 55% relative humidity, 4 and 7 days, N=6 (FIG. 4)
Experimental: FIG. 4 illustrates a heat map of the fold change of some of the genes from FIG. 3 following media dosing of ex vivo tissue samples (N=6 per material) incubated at 33° C. and 55% relative humidity with four materials over a 7 day time course. Cross-hatching is provided in some of the cells of the table in FIG. 4 to indicate statistically significant up-regulation (p value≦0.05 and p value≦0.1) and statistically significant down regulation p value≦0.05 and p value≦0.1). In addition to TGFβ-1, three exogenous materials believed to provide one or more in vivo, anti-aging skin benefits were tested. The three exogenous materials tested were a vitamin B3 compound (i.e., niacinamide), a peptide (i.e., PAL-KT brand peptide (palmitoyl-lysine-threonine)), and an olive oil extract (i.e., OLIVEM 460 brand olive oil extract). Niacinamide is believed to provide a number of cosmetic skin care benefits (see, e.g., Bissett el al. “Niacinamide: A B Vitamin that Improves Aging Facial Skin Appearance” and Draelos “Clinical Situations Conducive to Proactive Skin Health and Anti-Aging Improvement”). […]

[2] = 33° C., 7 days, 50% relative humidity, media 20 ng/ml, five donors (FIG. 9B)

## CCC(=O)OC/C=C(C)/C=C/C=C(C)/C=C/C1=C(C)CCCC1(C)C [retinol propionate]
Epidermal gene panel
  relative fold change of epidermal gene panel (rank order): tRA>retinol>retinol propionate
  regulation of AQP3: up-regulated
  regulation of KRT10 and FLG: significantly down-regulated
[1]
  regulation of CYP26A1, ALDH1A2, RDH10, RARRES1 and LRAT: down-regulated with statistical significance
[1]; 50% relative humidity
  regulation of CRABP2, RARG and CEBPA: strongly up-regulate
  regulation of Cyp26B1: strongly up-regulated

## CC1=C(/C=C/C(C)=C/C=C/C(C)=C/CO)C(C)(C)CCC1 [retinol]
Epidermal gene panel
  relative fold change of epidermal gene panel (rank order): tRA>retinol>retinol propionate
  regulation of AQP3: up-regulated
  regulation of KRT10 and FLG: significantly down-regulated

## CC1=C(/C=C/C(C)=C/C=C/C(C)=C/C(=O)O)C(C)(C)CCC1 [tRA, trans-retinoic acid]
Epidermal gene panel
  relative fold change of epidermal gene panel (rank order): tRA>retinol>retinol propionate
  regulation of AQP3: up-regulated
  regulation of KRT10 and FLG: significantly down-regulated
[1]; 37° C., 50% relative humidity, 48 hours to 7 days (FIGS. 6A-6C)
  response of retinoid metabolism genes, tRA compared with RP: stronger response
[1]
  regulation of CYP26A1, ALDH1A2, RDH10, RARRES1 and LRAT: down-regulated with statistical significance
[1]; 50% relative humidity
  regulation of CRABP2, RARG and CEBPA: strongly up-regulate
  regulation of Cyp26B1: strongly up-regulated

## TGFβ-1: endogenous gene stimulative compound, known regulator of dermal matrix genes; used as positive control
Dermal gene panel; [2]
  regulation of ELN and LOXL2: did not show statistically significant up-regulation
  regulation of FN1, COL1A1 and COL3A1: significantly up-regulated
Dermal gene panel; 37° C., 7 days, 50% relative humidity, media 20 ng/ml, five donors (FIG. 9A)
  statistically significant up-regulation of ELN and LOXL2 across a majority of donors: did at 37 °C
Dermal gene panel; 24 hrs, media application 20 ng/ml, single donor, 37° C., 50% relative humidity (FIG. 8A)
  regulation of FN1, LOXL2, COL3A1, ELN and LOXL1: significantly regulated
Dermal gene panel; 7 days, 50% relative humidity, media 20 ng/ml, nine dermal genes
  number of statistically significant genes up-regulated at 37° C. versus 33° C.: increased dramatically
Dermal gene panel; media 20 ng/ml, 11 days, 33° C., 70% relative humidity, eight donor tissues (FIG. 15)
  donor tissues with statistically significant up-regulation of at least FN1, COL1A1 and ELN: 80%
Dermal gene panel; media application 20 ng/ml, single donor, 37° C., 50% relative humidity, 1 to 7 days (FIG. 8A)
  time of most robust response of dermal genes: between Day 5 and Day 7
Dermal gene panel; media applied 20 ng/ml, single donor, time course 24 hrs to 7 days (FIG. 2)
  regulation of FN1, COL1A1 and COL3A1: increasingly up-regulated
Dermal gene panel; media supplied (FIGS. 2, 4, 7 and 8)
  response of dermal genes: strong, consistent, up-regulation response

## palmitoyl-lysine-threonine [peptide]
TGFβ-2 and TGFβ-3
  regulation of TGFβ-2 and TGFβ-3: up-regulated
